Measurements published in patent US20100210722A1, “COMPOSITION FOR PREVENTING OR TREATING LIPID METABOLIC DISORDERS COMPRISING FUCOXANTHIN OR MARINE PLANT EXTRACT CONTAINING SAME” (AMICOGEN, INC., priority 2007, published 2010).
Marks after values point to notes of the source that are not given here.

Experiments:
Assay type in all cases: in vivo, C57BL/6N/CriBgi mice
[1] = Amount of feces and cholesterol content in feces; conditions: high fat diet, 6 weeks
Protocol: (§1) Seventy (70) 4-week-old male C57BL/6N/CriBgi mice weighing 14 g were purchased from Orient, and reared in separate cages maintained at 24° C. and relative humidity of 55%, providing light from 08:00 until 20:00. The mice were accustomed while providing a pellet type diet for a week. The mice, which weighed 18.5-18.7 g, were grouped into seven groups by the randomized block design. Each group was given a different diet, as follows.
(§2) Test diets were as follows: “normal diet group”=AIN-76 semisynthetic diet of Teklad (Madison, Wl, USA); “high fat diet group”=normal diet+10% of corn oil and 10% of lard; “test group I”=high fat diet+fucoxanthin extract of Example 1 (fucoxanthin content=0.05%); “test group II”=high fat diet+fucoxanthin extract of Example 1 (fucoxanthin content=0.2%); “test group III”=high fat diet+fucoxanthin extract of Example 2 (fucoxanthin content=0.05%); “test group IV”=high fat diet+fucoxanthin extract of Example 2 (fucoxanthin content=0.2%). The 6 diets (normal diet, high fat diet, and test I, II, III and IV) were given to the animals for 6 weeks. Diet intake was recorded every day, and body weight was measured once a week.
Feces were taken from the mice fed with the test diets for 6 weeks of Reference Example 1. The amount of feces and cholesterol content in the feces were measured.

[2] = test system: phosphatidate phosphohydrolase (PAP); test: PAP activity in liver tissue; conditions: high fat diet, 6 weeks
Excerpt: as §2

[3] = test system: lipoprotein lipase (LPL) mRNA; test: Expression of mRNA for LPL in liver tissue (real-time PCR)
[4] = test system: glucose-6-phosphate dehydrogenase (G6PD); test: G6PD activity in liver tissue; conditions: high fat diet, 6 weeks
Excerpt: as §2
The supernatant was centrifuged again at 12,000×g for 15 minutes. Then, the supernatant was subjected to high-speed centrifuging (Beckman, Optima TLX-120, USA) at 100,000×g for 1 hour. Then, change of the activity of enzymes involved in the synthesis of fatty acid—fatty acid synthase (FAS), glucose-6-phosphate dehydrogenase (G6PD) and malic enzyme (ME)—was measured.
The G6PD enzyme is an enzyme that supplied reducing energy required for the synthesis of fatty acid. […] G6PD activity was measured at 340 nm by the degree of reduction of NADP^+ to NADPH by G6PD. […] G6PD activity was calculated as nmol of NADPH produced per 1 mg of protein in cell per minute.

[5] = Body weight of mice fed high fat diet with fucoxanthin extract or highly pure fucoxanthin; conditions: high fat diet; for Body weight, Week 0: Week 0 (baseline); for Body weight, Week 0 / Body weight, Week 1 / Body weight, Week 2: in g (unit assumed)
Protocol: as §1, §2
During the 6-week test period, body weight was measured every week. Significance of differences of means of the groups was evaluated by one-way analysis of variance (ANOVA) technique. Duncan's multiple range test was employed for post-evaluation of the groups, with P<0.05.

CPT mRNA = test: Expression of mRNA for CPT in adipose tissue (real-time PCR); conditions: normal diet = 1.00, GAPDH internal marker
Excerpt: as §2
(§3) 5 mL of Trizol was added to 0.5 g of white adipose tissue. After pulverizing in liquid nitrogen using a mortar, the tissue was added to 1 mL of chloroform. […] The isolated RNA was diluted and absorbance was measured at 260 nm using a UV spectrometer. […]
(§4) Thus prepared cDNA was […] 10-fold, and primers for analyzing the expression of the respective genes (CPT, β-oxidation, FAS, ME and G6PD) were obtained from Genotech (Daejeon, Korea). […] Fluorescence signals were monitored for each cycle and threshold cycle (Cr) was analyzed for quantitative analysis of mRNA for the test groups (Applied Biosystems, SDS7000) (Livak, 2001). […]

FAS mRNA = test: Expression of mRNA for FAS in adipose tissue (real-time PCR); conditions: normal diet = 1.00, GAPDH internal marker
Excerpt: as §2, §3, §4

[6] = fucoxanthin content 0.05% (Test I/III)
[7] = fucoxanthin content 0.2% (Test II/IV)

In the case of CC(=O)O[C@H]1CC(C)(C)C(=C=C/C(C)=C/C=C/C(C)=C/C=C/C=C(C)/C=C/C=C(\C)C(=O)C[C@@]23O[C@]2(C)C[C@@H](O)CC3(C)C)[C@](C)(O)C1 [highly pure fucoxanthin, Fucoxanthin], the Amount of feces [1, 6] is reported as 0.226 ± 0.01^c g/day, the “Cholesterol content in feces” value [1, 6] is reported as 237.88 ± 10.39^c umol/g and the Amount of feces [1, 7] is reported as 0.209 ± 0.01^bc g/day. For the same molecule, the “Cholesterol content in feces” value [1, 7] was 508.79 ± 13.25^c umol/g, the PAP activity [2, 6] was 21.62 ± 1.54^a mmol/min/mg protein and the PAP activity [2, 7] was 26.14 ± 1.03^ab mmol/min/mg protein. For the same molecule, the “Expression of mRNA, LPL” value ([3]; normal diet = 1.00, fucoxanthin content 0.05% (Test I/III)) was 2.11 ± 0.09^b, the “Expression of mRNA, LPL” value ([3]; normal diet = 1.00, fucoxanthin content 0.2% (Test II/IV)) was 1.20 ± 0.14^a and the G6PD activity [4, 6] was 51.53 ± 4.31^a mmol/min/mg protein. For the same molecule, the G6PD activity [4, 7] was 50.51 ± 3.74^a mmol/min/mg protein, the “Body weight, Week 0” value [5, 6] was 18.56 ± 0.3 and the “Body weight, Week 1” value [5, 6] was 20.19 ± 0.2. The “Body weight, Week 2” value [5, 6] was 21.79 ± 0.3, the “Body weight, Week 3” value [5, 6] was 22.70 ± 0.2^b and the “Body weight, Week 4” value [5, 6] was 24.39 ± 0.3^b. The “Body weight, Week 5” value [5, 6] was 26.46 ± 0.3^b, the “Body weight, Week 6” value [5, 6] was 27.80 ± 0.3^b and the “Body weight, Week 0” value [5, 7] was 18.58 ± 0.3. The “Body weight, Week 1” value [5, 7] was 20.19 ± 0.3, the “Body weight, Week 2” value [5, 7] was 22.30 ± 0.3 and the “Body weight, Week 3” value [5, 7] was 22.96 ± 0.4^ab. For the same molecule, the “Body weight, Week 4” value [5, 7] was 25.17 ± 0.5^ab, the “Body weight, Week 5” value [5, 7] was 26.39 ± 0.6^b and the “Body weight, Week 6” value [5, 7] was 27.37 ± 0.7^bc. For the same molecule, the “Expression of mRNA, CPT” value (CPT mRNA; [6]) was 1.65 ± 0.15^c, the “Expression of mRNA, CPT” value (CPT mRNA; [7]) was 1.51 ± 0.06^bc and the “Expression of mRNA, FAS” value (FAS mRNA; [6]) was 0.51 ± 0.03^abc. The “Expression of mRNA, FAS” value (FAS mRNA; [7]) was 0.28 ± 0.05^a.
